Like-named read-outs stand apart in the source and are kept apart here. Values belong to the molecule of their own block, whether it stands above or below them. Peptide text beside a SMILES is read from it.
How the values were obtained:
human ATIC = human ATIC (Homo sapiens, UniProt P31939); test: AICAR Tfase inhibition assay with human ATIC; assay type: biochemical
[1] = target: T1, AICAR Tfase activity of ATIC (Gallus gallus, UniProt P31335); test: AICAR Tfase inhibition in the presence of BSA; assay type: biochemical; conditions: compound at 10 μM and 50 μM; 1 mg/mL and 10 mg/mL BSA
T1 sequence (P31335 1-593): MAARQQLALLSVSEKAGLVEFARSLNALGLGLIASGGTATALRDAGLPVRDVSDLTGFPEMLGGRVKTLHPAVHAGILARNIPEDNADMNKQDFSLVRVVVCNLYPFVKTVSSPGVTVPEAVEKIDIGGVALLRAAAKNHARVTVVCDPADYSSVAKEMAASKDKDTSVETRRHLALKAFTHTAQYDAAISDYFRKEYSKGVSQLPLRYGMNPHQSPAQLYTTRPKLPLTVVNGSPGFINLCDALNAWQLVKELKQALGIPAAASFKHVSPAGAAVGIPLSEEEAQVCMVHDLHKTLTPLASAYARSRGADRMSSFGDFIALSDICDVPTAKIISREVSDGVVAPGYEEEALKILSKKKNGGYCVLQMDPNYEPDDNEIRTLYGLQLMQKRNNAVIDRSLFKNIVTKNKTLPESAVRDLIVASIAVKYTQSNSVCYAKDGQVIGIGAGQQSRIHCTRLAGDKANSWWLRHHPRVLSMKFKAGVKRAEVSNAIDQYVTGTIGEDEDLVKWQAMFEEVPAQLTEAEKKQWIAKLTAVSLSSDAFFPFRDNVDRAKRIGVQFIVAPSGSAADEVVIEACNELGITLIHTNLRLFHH

human ATIC homodimer = human ATIC homodimer (Homo sapiens, UniProt P31939); test: Size exclusion chromatography of ATIC monomer/dimer ratio; assay type: binding; conditions: 50 μM ATIC treated with 10 μM compound
MCF-7 cells [2] = test: MTS-based cell proliferation; conditions: 48 hours after dosing
MCF-7 cells [3] = test: Live-cell imaging; assay type: cell-based; conditions: MCF-7, 250 μM
[4] = target: T2, AICAR Tfase activity of avian ATIC (Gallus gallus, UniProt P31335); test: AICAR Tfase inhibition assay
T2 sequence (P31335 1-593): T1 sequence (P31335 1-593)

human ATIC, sequence (P31939 whole entry): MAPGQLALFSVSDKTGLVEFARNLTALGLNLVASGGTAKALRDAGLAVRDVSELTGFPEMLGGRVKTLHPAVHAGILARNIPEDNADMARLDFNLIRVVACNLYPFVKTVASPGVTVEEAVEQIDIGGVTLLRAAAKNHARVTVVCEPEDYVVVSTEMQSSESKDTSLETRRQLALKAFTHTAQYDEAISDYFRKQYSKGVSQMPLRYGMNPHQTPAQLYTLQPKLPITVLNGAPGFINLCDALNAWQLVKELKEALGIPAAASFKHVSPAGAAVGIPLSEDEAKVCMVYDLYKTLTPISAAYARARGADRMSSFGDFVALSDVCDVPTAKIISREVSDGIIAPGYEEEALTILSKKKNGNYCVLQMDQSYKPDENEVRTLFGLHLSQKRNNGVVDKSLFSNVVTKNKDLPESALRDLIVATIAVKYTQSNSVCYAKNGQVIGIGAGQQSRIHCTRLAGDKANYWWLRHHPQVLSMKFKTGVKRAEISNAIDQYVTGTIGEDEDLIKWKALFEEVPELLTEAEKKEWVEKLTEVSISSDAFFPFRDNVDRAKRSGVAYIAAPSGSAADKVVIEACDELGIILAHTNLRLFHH
human ATIC homodimer, sequence (P31939 whole entry): as above

Ki [4]: > 2500 µM
Molecule: CC(C)[C@@H]1NC(=O)[C@H](CC(N)=O)NC(=O)[C@H](Cc2ccccc2)NC(=O)[C@H](C)NC(=O)[C@H](CCCNC(=N)N)NC(=O)[C@H](CS)NC1=O [Compound 4, cyclo-CRAFNV] (cyclo(AFNVCR))

Ki [4]: 252 ± 22 µM
Molecule: C[C@@H]1NC(=O)[C@H](CC(N)=O)NC(=O)[C@H](Cc2ccccc2)NC(=O)[C@H](Cc2ccc(O)cc2)NC(=O)[C@H](CCCNC(=N)N)NC(=O)[C@H](CS)NC1=O [Compound 7, cyclo-CRYFNA] (cyclo(ACRYFN))

Ki [4]: 368 ± 29 µM
Molecule: CC(C)[C@@H]1NC(=O)[C@H](C)NC(=O)[C@H](Cc2ccccc2)NC(=O)[C@H](Cc2ccc(O)cc2)NC(=O)[C@H](CCCNC(=N)N)NC(=O)[C@H](CS)NC1=O [Compound 6, cyclo-CRYFAV] (cyclo(AVCRYF))

Second part, the molecule before the results:

Molecule: CCN(CC)C(=O)[C@H](Cc1ccc([N+](=O)[O-])cc1)NC(=O)[C@H](CCCNC(=N)N)NC(C)=O [Compound 14, Acetyl-Arg-CONH-Phe(4-NO2)-L-Diethylamide]
Ki with human ATIC compared to the avian enzyme (human ATIC): same Ki (within error)
AICAR Tfase inhibition in presence of BSA [1]: continued to inhibit the reaction to a similar extent as observed in the absence of BSA
ATIC species observed by size exclusion chromatography (human ATIC homodimer): presence of monomeric ATIC
inhibition of viability (MCF-7 cells [2]; MCF-7, 500 μM (maximum dose)): 40%
effect on viability (MCF-7 cells [2]; MCF-7, 100, 250 or 500 μM): dose-dependent reduction in viability
mechanism of effect on cell numbers (MCF-7 cells [3]; analysis of videos over 72 hours): reduction in cell division rates, rather than an increase in cell death
reduction in proliferation compared to control-treated cells (MCF-7 cells [3]; time-lapse microscopy over 72 hours): 35%
Ki ([4]; Table 2, RY analogues, avian ATIC, 25 °C): 0.685 ± 0.035 µM
fold improvement in activity compared to capped RY dimer 8 ([4]; from Ki values of Table 2): 120 fold

Molecule: CC(C)[C@@H]1NC(=O)[C@H](CC(N)=O)NC(=O)[C@H](Cc2ccccc2)NC(=O)[C@H](Cc2ccc(O)cc2)NC(=O)[C@H](CCCNC(=N)N)NC(=O)[C@H](CS)NC1=O [Compound 1, cyclo-CRYFNV] (cyclo(RYFNVC))
Ki with human ATIC compared to the avian enzyme (human ATIC): same Ki (within error)

Molecule: CC(C)[C@@H]1NC(=O)[C@H](CC(N)=O)NC(=O)[C@H](C)NC(=O)[C@H](Cc2ccc(O)cc2)NC(=O)[C@H](CCCNC(=N)N)NC(=O)[C@H](CS)NC1=O [Compound 5, cyclo-CRYANV] (cyclo(ANVCRY))
Ki [4]: 38 ± 5 µM

Molecule: linear-CRYFNV [reference compound]
fold loss of activity compared to cyclo-CRYFNV ([4]; from Ki values): 8 fold

Molecule: CC(C)[C@@H]1NC(=O)[C@H](CC(N)=O)NC(=O)[C@H](Cc2ccccc2)NC(=O)[C@H](Cc2ccc(O)cc2)NC(=O)[C@H](C)NC(=O)[C@H](CS)NC1=O [Compound 3, cyclo-CAYFNV] (cyclo(AYFNVC))
Ki [4]: > 2500 µM

Molecule: CC(C)[C@@H]1NC(=O)[C@H](CC(N)=O)NC(=O)[C@H](Cc2ccccc2)NC(=O)[C@H](Cc2ccc(O)cc2)NC(=O)[C@H](CCCNC(=N)N)NC(=O)[C@H](C)NC1=O [Compound 2, cyclo-ARYFNV] (cyclo(ARYFNV))
Ki [4]: 651 ± 25 µM

Source: publication PMC3517147 (Chembiochem : a European journal of chemical biology, 2012)
